# Results taken from US5391744A (priority 1993, dated 1995).
# “Also recorded” adds a separate entry of the source. Like-named read-outs stand apart in the source and are kept apart here.
# Assays:
# [1] = tested on: rats trained to discriminate cocaine
# dopamine transporter [2] = conditions: in words; literature; cited from earlier work
# [3] = tested on: rats trained to discriminate cocaine; assay: animal or person; conditions: Rattus norvegicus, ip, 0.25 h, read-out: ED50 (50% cocaine-lever responding)
# dopamine transporter [4] = molecular target: T1, dopamine transporter (Rattus norvegicus, UniProt P23977); set-up: from tissue; host or cells: rat striatal membranes; conditions: 0.5 nM [^3 H]-1b; rat striata; F. I. Carroll et al.; cited from earlier work
# nonhuman primates = conditions: in words; literature; cited from earlier work
# [5] = molecular target: T2, dopamine transporter (high-affinity uptake of [^3 H]dopamine into striatal nerve endings) (Rattus norvegicus, UniProt P23977); assay: inhibition of high-affinity uptake of [^3 H]dopamine into striatal nerve endings (synaptosomes); format: biochemical
# T2 construct: striatal nerve endings (synaptosomes); from tissue; host or cells: striatal nerve endings (synaptosomes)
# dopamine transporter [6] = molecular target: T1, dopamine transporter; assay: displacement of [^3 H]mazindol binding from rat striatal membranes; conditions: for potency / affinity increase over cocaine, mazindol binding: relative to (-)-cocaine
# [7] = dose-response test, 0.625 mg/kg, 15 min, mean ± S.E.M.
# [8] = dose-response test, 1.25 mg/kg, 15 min, mean ± S.E.M.
# [9] = dose-response test, 2.5 mg/kg, 15 min, mean ± S.E.M.
# [10] = dose-response test, 5.0 mg/kg, 15 min, mean ± S.E.M.
# [11] = dose-response test, 10.0 mg/kg, 15 min, mean ± S.E.M.
# [12] = temporal test, 10.0 mg/kg, 5 min, mean ± S.E.M.
# [13] = temporal test, 10.0 mg/kg, 15 min, mean ± S.E.M.
# [14] = temporal test, 10.0 mg/kg, 60 min, mean ± S.E.M.
# [15] = temporal test, 10.0 mg/kg, 120 min, mean ± S.E.M.
# [16] = mean ± SE (N), striatal synaptosomes, read-out: IC50 [^3 H] Dopamine Uptake
# T2 sequence (P23977 whole entry): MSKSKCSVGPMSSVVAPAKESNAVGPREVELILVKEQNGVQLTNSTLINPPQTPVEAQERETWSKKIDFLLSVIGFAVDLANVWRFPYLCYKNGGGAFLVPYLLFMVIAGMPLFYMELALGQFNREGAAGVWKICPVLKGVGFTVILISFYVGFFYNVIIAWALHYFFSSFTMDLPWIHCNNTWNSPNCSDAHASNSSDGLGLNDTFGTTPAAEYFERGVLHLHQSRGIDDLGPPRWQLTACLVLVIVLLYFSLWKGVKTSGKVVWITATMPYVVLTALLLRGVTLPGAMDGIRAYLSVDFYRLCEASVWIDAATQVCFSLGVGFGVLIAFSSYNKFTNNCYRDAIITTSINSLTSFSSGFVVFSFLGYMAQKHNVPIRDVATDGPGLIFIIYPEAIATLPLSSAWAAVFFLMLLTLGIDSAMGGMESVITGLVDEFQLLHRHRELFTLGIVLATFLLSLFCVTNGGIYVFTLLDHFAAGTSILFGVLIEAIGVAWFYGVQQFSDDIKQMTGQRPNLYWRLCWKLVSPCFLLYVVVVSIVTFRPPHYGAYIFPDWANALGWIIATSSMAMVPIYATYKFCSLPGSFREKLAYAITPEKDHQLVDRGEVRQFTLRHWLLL
# T1 sequence (P23977 whole entry): as above
smiles,measurement,setting,value
"COC(=O)[C@H]1[C@@H](OC(=O)c2ccccc2)C[C@@H]2CC[C@H]1N2C [(-)-cocaine, methyl 3-(benzoyloxy) -8-methyl-8-azabicyclo [3.2.1]octane-2 carboxylate, reference compound]",duration of complete cocaine-like response,[1]; cocaine 10 mg/kg,approximately 60 min
same,injection period eliciting complete cocaine-like response,[1]; cocaine 10 mg/kg,5 min
same,response type at 120 min,"[1]; cocaine, 120 min injection period, in words",elicited primarily saline-appropriate responding
same,n/N (animals completing 20 responses / tested),"[1]; dose-response test, 0.625 mg/kg, 15 min",7/7
same,% Drug responses,[1]; [7],6 ± 2%
same,Rate (responses/min),[1]; [7],27.3 ± 5 responses/min
same,n/N (animals completing 20 responses / tested),"[1]; dose-response test, 1.25 mg/kg, 15 min",7/7
same,% Drug responses,[1]; [8],44 ± 18%
same,Rate (responses/min),[1]; [8],21.3 ± 5 responses/min
same,n/N (animals completing 20 responses / tested),"[1]; dose-response test, 2.5 mg/kg, 15 min",7/7
same,% Drug responses,[1]; [9],61 ± 16%
same,Rate (responses/min),[1]; [9],31.6 ± 16 responses/min
same,n/N (animals completing 20 responses / tested),"[1]; dose-response test, 5.0 mg/kg, 15 min",7/7
same,% Drug responses,[1]; [10],98 ± 2%
same,Rate (responses/min),[1]; [10],89.0 ± 16 responses/min
same,n/N (animals completing 20 responses / tested),"[1]; dose-response test, 10.0 mg/kg, 15 min",7/7
same,% Drug responses,[1]; [11],99 ± 1%
same,Rate (responses/min),[1]; [11],75.8 ± 13 responses/min
same,response rates,"[1]; in words, across test doses",fairly stable across all test doses
same,substitution for the cocaine cue / drug-appropriate responding,"[1]; in words, dose-dependence over the tested doses",increased in a dose-dependent manner
same,n/N (animals completing 20 responses / tested),"[1]; temporal test, 10.0 mg/kg, 5 min",7/7
same,% Drug responses,[1]; [12],85 ± 13%
same,Rate (responses/min),[1]; [12],28.2 ± 8 responses/min
same,n/N (animals completing 20 responses / tested),"[1]; temporal test, 10.0 mg/kg, 15 min",7/7
same,% Drug responses,[1]; [13],99 ± 1%
same,Rate (responses/min),[1]; [13],75.8 ± 13 responses/min
same,n/N (animals completing 20 responses / tested),"[1]; temporal test, 10.0 mg/kg, 30 min",7/7
same,% Drug responses,"[1]; temporal test, 10.0 mg/kg, 30 min, mean",100%
same,Rate (responses/min),"[1]; temporal test, 10.0 mg/kg, 30 min, mean ± S.E.M.",60.6 ± 11 responses/min
same,n/N (animals completing 20 responses / tested),"[1]; temporal test, 10.0 mg/kg, 60 min",7/7
same,% Drug responses,[1]; [14],81 ± 14%
same,Rate (responses/min),[1]; [14],23.0 ± 4 responses/min
same,n/N (animals completing 20 responses / tested),"[1]; temporal test, 10.0 mg/kg, 120 min",7/7
same,% Drug responses,[1]; [15],31 ± 18%
same,Rate (responses/min),[1]; [15],27.7 ± 7 responses/min
same,binding to / inhibition of the dopamine transporter,dopamine transporter [2],binds to the dopamine transporter and inhibits dopamine transport
same,ED50,[3],1.7 mg/kg
COC(=O)[C@H]1[C@@H](c2ccc(I)cc2)C[C@@H]2CC[C@H]1N2C [Compound 1c],"potency relative to (-)-cocaine, inhibition of [^3 H]-1b binding",dopamine transporter [4],78 times
COC(=O)C(c1ccccc1)C1CCCCN1 (stereo not drawn) [methylphendiate],binding to / inhibition of the dopamine transporter,dopamine transporter [2],potent inhibitors of binding at the transport site for dopamine
same,potency in maintaining self-administration,nonhuman primates,potent in maintaining self-administration
"CN1[C@H]2CC[C@@H]1[C@@H](/C=C/Cl)[C@@H](OC(=O)c1ccccc1)C2 [Compound 2b, 3β-(Benzoyloxy)-2β-[(E)-2-chlorovinyl]tropane]",IC50,[5]; [16],368 ± 190 nM
same,"potency / affinity increase over cocaine, mazindol binding",dopamine transporter [6],approximate twofold higher affinity; also recorded: about two-fold more potent than cocaine
"COC(=O)[C@H]1[C@@H](c2ccc(F)cc2)C[C@@H]2CC[C@H]1N2C [Compound 1b, 3β-(p-fluorophenyl)tropane-2β-carboxylic acid methyl ether]",binding to / inhibition of the dopamine transporter,dopamine transporter [2],most potent compounds in binding and behavioral studies
same,potency in behavioral studies,nonhuman primates,most potent compounds in binding and behavioral studies
"CCOC(=O)/C=C/[C@H]1[C@@H](OC(=O)c2ccccc2)C[C@@H]2CC[C@H]1N2C [Compound 2e, 3β-(Benzoyloxy)-2β-[(E)-2-(ethoxycarbonyl)vinyl]tropane]",IC50,[5]; [16],310 ± 10 nM
same,"potency increase over cocaine, dopamine uptake",[5]; relative to (-)-cocaine,4-5 times
same,IC50,dopamine transporter [6],50 ± 10 nM
same,"potency / affinity increase over cocaine, mazindol binding",dopamine transporter [6],4-5 fold
"CN1[C@H]2CC[C@@H]1[C@@H](/C=C/Cl)[C@@H](c1ccc(Cl)cc1)C2 [Compound 2d, 3β-(4-Chlorophenyl)-2β-[(E)-2-chlorovinyl]tropane]",IC50,[5],1.26 ± 0.3 nM
same,IC50,dopamine transporter [6],0.72 ± 0.06 nM
same,potency of 2d relative to 2c,"dopamine transporter [6]; relative to 2c, binding affinity",doubling the potency
"COC(=O)[C@H]1[C@@H](c2ccc(Cl)cc2)C[C@@H]2CC[C@H]1N2C [Compound 1d, 3β-(p-chlorophenyl)tropane-2β-carboxylic acid methyl ester, reference compound]",IC50,[5],3.2 ± 0.1 nM
same,"potency relative to (-)-cocaine, inhibition of [^3 H]-1b binding",dopamine transporter [4],85 times
same,IC50,dopamine transporter [6],1.7 ± 0.1 nM
"COC(=O)[C@H]1[C@@H](c2ccccc2)C[C@@H]2CC[C@H]1N2C [Compound 1a, 3β-phenyltropane-2β-carboxylic acid methyl ester]",binding to / inhibition of the dopamine transporter,dopamine transporter [2],most potent compounds in binding and behavioral studies
same,potency in behavioral studies,nonhuman primates,most potent compounds in binding and behavioral studies
OC1(c2ccc(Cl)cc2)c2ccccc2C2=NCCN21 (stereo not drawn) [mazindol],binding to / inhibition of the dopamine transporter,dopamine transporter [2],potent inhibitors of binding at the transport site for dopamine
same,potency in maintaining self-administration,nonhuman primates,potent in maintaining self-administration
CN1Cc2c(N)cccc2C(c2ccccc2)C1 (stereo not drawn) [nomifensine],potency in maintaining self-administration,nonhuman primates,potent in maintaining self-administration
"CCOP(=O)(/C=C/[C@H]1[C@@H](OC(=O)c2ccccc2)C[C@@H]2CC[C@H]1N2C)OCC [Compound 2f, 3β-Benzoyloxy-2β-[(E)-2-(diethoxyphosphono)vinyl]tropane]",IC50,[5],5500 ± 70 nM
same,inhibition of dopamine uptake,[5]; in words,found to inhibit dopamine uptake
same,"fold less potent than cocaine, dopamine uptake",[5]; relative to (-)-cocaine,about 10 fold
same,IC50,dopamine transporter [6],4850 ± 470 nM
"C=C[C@H]1[C@@H](OC(=O)c2ccccc2)C[C@@H]2CC[C@H]1N2C [Compound 2a, 3β-(Benzoyloxy)-2β-vinyltropane]",IC50,[5]; [16],1120 ± 390 nM
same,"fold less potent than cocaine, dopamine uptake",[5]; relative to (-)-cocaine,two-fold less potent
same,activity relative to parent structure (cocaine),"dopamine transporter [6]; Table I data, in words",not substantially less active than the parent structure
